Experimental data as given in article doi:10.1101/374926v1 (bioRxiv, 2018).
Each block holds one compound with its values, some of them ahead of it.

Key:
[1] = In vitro FCS diffusion measurement; assay type: physicochemical; details: Milli-Q water
[2] = tested on: GR*-eGFP in Saos-2(GIGT) cells; assay: Glucocorticoid-induced eGFP translocation; assay type: cell-based, human; details: 1 μM, 30 min
[3] = tested on: eGFP-hGal8 in Saos-2 cells; assay: Galectin recruitment assay for endosomal damage; assay type: cell-based, human; details: RNAiMAX 16 μL/mL or LLOMe 1 mM, 1 h
[4] = tested on: eGFP-hGal3 in Saos-2 cells; assay: Galectin recruitment assay for endosomal damage; assay type: cell-based, human
Saos-2 cells = assay: FCS-based Lys9^R endosomal leakage assay; assay type: cell-based, human; details: for Lys9^R delivery efficiency (DE), cytosol / Lys9^R delivery efficiency (DE), nucleus: 60 min, FCS, n > 10 cells
[5] = 2,500 cells per well in transfection medium

Average τdiff in vitro at 25 °C [1]: 0.064 ± 0.001 ms
Measured D at 25 °C [1]: 206 ± 3 μm^2 s^-1
Compound: Ac-KKKKKKKKK-NH2 [Lys9^UL]

Compound: K^Dex–GPSQPTYPGDDAPVRDLIRFYRDLRRYLNVVTR HRY-CONH2 [1^Dex]
translocation ratio (TR) [2, 5]: 3.0 ± 0.40
mean translocation ratio (TR) ([2]; cells transfected with non-targeting siRNA, non-treated 1.2 ± 0.1): 2.4 ± 0.3
translocation ratio (TR) ([2]; complete media): around 2.0
translocation ratio (TR) ([2]; transfection media): around 3.0

Compound: K^Dex-WYSCNVCGKAFVLSRHLNRHLRVHRRAT-CONH2 [2^Dex]
translocation ratio (TR) [2, 5]: 3.0 ± 0.090
translocation ratio (TR) ([2]; complete media): around 2.0
translocation ratio (TR) ([2]; transfection media): around 3.0

Compound: COC(=O)[C@H](CC(C)C)NC(=O)[C@@H](N)CC(C)C [LLOMe, L-leucyl-L-leucine methyl ester]
increase of average ERC over untreated cells, eGFP-hGal8 [3]: 68 fold
vesicular staining compared to the total cell area ([4]; LLOMe 1 mM, 1 hour, corresponds to ERC 400.0): 4%
ERC value routinely obtained ([4]; LLOMe 1 mM, 1 hour, untreated cells around 0.0): ~400.0
increase of average ERC over untreated cells, eGFP-hGal3 ([4]; RNAiMAX 16 μL/mL or LLOMe 1 mM, 1 h): 147 fold
Lys9^R delivery efficiency (DE), cytosol (Saos-2 cells; LLOMe 0.125 mM, no agent: 3): 3%
Lys9^R delivery efficiency (DE), nucleus (Saos-2 cells; LLOMe 0.125 mM, no agent: 4): 6%
Lys9^R delivery efficiency (DE), cytosol (Saos-2 cells; LLOMe 0.25 mM): 4%
Lys9^R delivery efficiency (DE), nucleus (Saos-2 cells; LLOMe 0.25 mM): 12%
Lys9^R delivery efficiency (DE), cytosol (Saos-2 cells; LLOMe 0.5 mM): 8%
Lys9^R delivery efficiency (DE), nucleus (Saos-2 cells; LLOMe 0.5 mM): 12%
Lys9^R delivery efficiency (DE), cytosol (Saos-2 cells; LLOMe 1.0 mM): 9%
Lys9^R delivery efficiency (DE), nucleus (Saos-2 cells; LLOMe 1.0 mM): 12%
endosomal leakage of Lys9^R (Saos-2 cells; LLOMe titration up to 1 mM, 1 h): no detectable endosomal leakage

Compound: C[C@@H]1C[C@H]2[C@@H]3CCC4=CC(=O)C=C[C@]4(C)[C@@]3(F)[C@@H](O)C[C@]2(C)[C@@]1(O)C(=O)CO [Dex, dexamethasone]
translocation ratio (TR) [2, 5]: 3.4 ± 0.40
